Measurements reported in patent US5696117A, “Benzoxazine antimicrobial agents” (Ortho Pharmaceutical Corporation, priority 1995, dated 1997).

Molecular target: T1, Kinase A and SpoOF (Bacillus subtilis, UniProt P16497)
T1 construct: made in house; host or cells: recombinant E. coli (overexpression)
T1 sequence (P16497 1-606): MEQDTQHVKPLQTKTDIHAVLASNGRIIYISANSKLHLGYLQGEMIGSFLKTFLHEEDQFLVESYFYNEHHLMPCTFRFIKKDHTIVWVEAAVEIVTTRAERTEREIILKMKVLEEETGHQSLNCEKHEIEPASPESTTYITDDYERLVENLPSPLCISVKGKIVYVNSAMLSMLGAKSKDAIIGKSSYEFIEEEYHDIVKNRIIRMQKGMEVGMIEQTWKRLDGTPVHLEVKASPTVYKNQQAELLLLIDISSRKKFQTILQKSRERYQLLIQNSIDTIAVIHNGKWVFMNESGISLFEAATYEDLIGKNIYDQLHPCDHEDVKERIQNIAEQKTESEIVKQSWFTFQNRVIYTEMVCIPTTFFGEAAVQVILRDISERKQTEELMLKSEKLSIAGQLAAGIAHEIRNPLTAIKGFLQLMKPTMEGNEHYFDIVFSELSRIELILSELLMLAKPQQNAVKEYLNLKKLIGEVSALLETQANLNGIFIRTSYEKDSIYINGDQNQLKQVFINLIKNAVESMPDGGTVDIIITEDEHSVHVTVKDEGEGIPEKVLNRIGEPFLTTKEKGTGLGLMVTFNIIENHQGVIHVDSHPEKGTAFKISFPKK
Assay: Autophosphorylation of Kinase A and Transphosphorylation of SpoOF Assay (HPK in vitro assay)
Format: biochemical
Conditions: inhibition of KinA autophosphorylation / SpoOF transphosphorylation, inhibitor concentrations from 1 to 500 μM
Experimental: 1. Autophosphorylation of Kinase A and Transphosphorylation of SpoOF Assay
To study the effect of the compounds of the present invention on the signal transduction process in bacteria, the inhibiting effect of the compounds on the sporulation operon proteins Kinase A and SpoOF was examined. Specifically, the inhibition of autophosphorylation of Kinase A and the transphosphorylation of SpoOF was determined in the following assays. The SpoOF response regulator is the primary substrate for phosphorylation by the protein kinase, Kin A, involved in the sporulation process in bacteria. See D. Burbulys, K. A. Trach, J. A. Hoch, Cell, 64, 545-552 (1991). SpoOF and KinA were prepared from recombinant E. coli overexpressing the proteins (J. Cavanagh et al, Amino Acids, 6, 131-140 (1994) and references therein).
The following stock reagents were either prepared and used promptly or stored at the indicated temperature:
8× Salts: 2M KCl (5 mL), 1M MgCl2 (800 mL), 1M CaCl2 (100 mL), 10 mg/mL phenylmethylsulfonyl fluoride (200 mL), 1M dithioreitol (50 mL), 0.25M Na2 EDTA (32 mL) and H2 O 3.82 mL (-20° C.)
5× Loading Dye: 0.5M TRIS-HCl-pH 6.8 (7.5 mL), 10% SDS (2 mL) 0.1% bromophenol blue (0.5 mL), 100% glycerol (3 mL) and 12.5M 2-mercaptoethanol (0.3 mL)
1-1.3 mg/mL KinA:15 mM TRIS-HCl, pH 8.0, 6 mM KCl; 4 mM 2-mercaptoethanol; 40% glycerol (-20° C.)
1 mg/mL SpoOF: 17.5 mM TRIS-HCl, pH 8.0; 0.7 mM KCl; 0.7 mM MgCl2; 0.7 mM CaCl2; 5mM 2-mercaptoethanol; 30% Glycerol (-20° C.)
5% Stacking Gel: 40% 29:1 acrylamide:bis acrylamide (1.25 mL), 0.5M TRIS-HCl, pH 6.8 (2.5 mL), 10% SDS (0.1 mL), D-H2 O (6.15 mL) 10% ammonium persulfate (100 mL) and TEMED (25 mL)
SDS Running Buffer: TRIS-BASE (3.02 g), glycine (14.4 g) SDS (1 g), D-H2 O (to 1 L)
The reaction mixture was prepared from 8× Salts (87 μL), 1M TRIS, pH 8 (118 μL), 50% glycerol (63 μL), SpoOF (14.1 μL) and KinA (7.0 μL). Microcentrifuge tubes were charged with the reaction mixture (18.5 μL) and a 1.0 mM solution of the test compound in 5% DMSO (18.5 μL), and incubated for 15 min on ice. 100 mM ATP solution (3.0 μl, containing 625 μCi [^32 P]ATP) was added, and the mixture left for 10 minutes at room temperature. The reaction was quenched with 5× loading dye (10 μL per tube) and the samples were loaded on a prepared 5% Stacking Gel, or stored on dry ice until ready for use. The prepared wells were filled with SDS Running Buffer, samples were loaded into the wells, and 80 volts were applied to the gel until the dye front reached the bottom of the stacking gel. The voltage was then increased to 250 volts until electrophoresis was complete. Radioactive bands in the gel corresponding to phosphorylated KinA and SpoOF were imaged and quantitated with a phosphoimager.
If either enzyme was inhibited (as evidenced by the absence of labelled protein in the developed gel), an IC50 was calculated by running the assay with a range of inhibitor concentrations from 1 to 500 μM. After electrophoresis of the reaction mixtures, percent inhibition was determined by measuring the concentration of radioactive phosphorus with a phosphoimager and calculating the values using a software program (BioRad Molecular Analyst). IC50 values of less than 500 μM are considered active.

| IC50 | SMILES |
| --- | --- |
| 444 µM | N=C(N)NCCc1ccc(OCCC2Oc3ccccc3N(Cc3ccncc3)C2=O)cc1 (stereo not drawn) [Compound 42, 3,4-Dihydro-2-{2-[4-(2-guanidinoethyl)phenoxy]ethyl}-3-oxo-4-(4-picolyl)-2H-1,4-benzoxazine] |
| 13 µM | N=C(N)NCCc1ccc(OCCC2Oc3ccccc3N(Cc3cccc4ccccc34)C2=O)cc1 (stereo not drawn) [Compound 43, 3,4-Dihydro-2-{2-[4-(2-guanidinoethyl)phenoxy]ethyl}-4-(1-naphthylmethyl)-3-oxo-2H-1,4-benzoxazine] |
| 17 µM | N=C(N)NCCc1ccc(OCCC2Oc3ccccc3N(Cc3ccc4ccccc4c3)C2=O)cc1 (stereo not drawn) [Compound 45, 3,4-Dihydro-2-{2-[4-(2-guanidinylethyl)phenoxy]ethyl}-4-(2-naphthylmethyl)-3-oxo-2H-1,4-benzoxazine] |
| 68 µM | N=C(N)NCCc1ccc(OCCC2Oc3ccccc3N(Cc3ccsc3)C2=O)cc1 (stereo not drawn) [Compound 46, 3,4-Dihydro-2-{2-[4-(2-guanidinylethyl)phenoxy]ethyl}-3-oxo-2H-4-(3-thienylmethyl)-1,4-benzoxazine] |
| 26 µM | N=C(N)NCCc1ccc(OCCC2Oc3ccccc3N(Cc3csc(Cl)c3)C2=O)cc1 (stereo not drawn) [Compound 48, 4-(2-Chloro-4-thienylmethyl)-3,4-dihydro-2-{2-[4-(2-guanidinoethyl)phenoxy]ethyl}-3-oxo-2H-1,4-benzoxazine] |
| 36 µM | N=C(N)NCCc1ccc(OCCC2Oc3ccc(-c4ccccc4)cc3N(Cc3cccc(Cl)c3)C2=O)cc1 (stereo not drawn) [Compound 52, 4-(3-Chlorobenzyl)-3,4-dihydro-2-{2-[4-(2-guanidinoethyl)phenoxy]ethyl}-3-oxo-6-phenyl-2H-1,4-benzoxazine] |
| 14 µM | N=C(N)NCCc1ccc(OCCC2Oc3ccc(C(F)(F)F)cc3N(Cc3cccc(Cl)c3)C2=O)cc1 (stereo not drawn) [Compound 54, 4-(3-Chlorobenzyl)-3,4-dihydro-2-{2-[4-(2-guanidinoethyl)phenoxy]ethyl}-3-oxo-6-trifluoromethyl-2H-1,4-benzoxazine] |
| 28 µM | N=C(N)NCCc1ccc(OCCC2Oc3cc(F)ccc3N(Cc3cccc(Cl)c3)C2=O)cc1 (stereo not drawn) [Compound 55, 4-(3-Chlorobenzyl)-3,4-dihydro-7-fluoro-2-{2-[4-(2-guanidinoethyl)phenoxy]ethyl}-3-oxo-2H-1,4-benzoxazine] |
| 17 µM | N=C(N)NCCc1ccc(OCCC2Oc3c(Cl)cc(Cl)cc3N(Cc3cccc(Cl)c3)C2=O)cc1 (stereo not drawn) [Compound 57, 4-(3-Chlorobenzyl)-6,8-dichloro-2-{2-[4-(2-guanidinoethyl)phenoxy]ethyl}-3,4-dihydro-3-oxo-2H-1,4-benzoxazine] |
| 174 µM | N=C(N)NCCc1ccc(OCCC2Oc3ccncc3N(Cc3cccc(Cl)c3)C2=O)cc1 (stereo not drawn) [Compound 62, 4-(3-Chlorobenzyl)-3,4-dihydro-2-[2-[4-(2-guanidinoethyl)phenoxy]ethyl]-3-oxo-2H-pyrido[4,3-b]-1,4-oxazine] |
| 19 µM | Cc1ccc(CN2CC(CCOc3ccc(CCNC(=N)N)cc3)Oc3ccccc32)cc1 (stereo not drawn) [Compound 66, 3,4-Dihydro-2-{2-[4-[2-guanidinoethyl]phenoxy]ethyl}-4-(4-methylbenzyl)-2H-1,4-benzoxazine] |
| 17 µM | N=C(N)NCCc1ccc(OCCC2CN(Cc3ccc(Cl)cc3Cl)c3ccccc3O2)cc1 (stereo not drawn) [Compound 68, (2,4-Dichlorobenzyl)-3,4-dihydro-2-{2-[4-(2-guanidinoethyl)phenoxy]ethyl}-4-2H-1,4-benzoxazine] |
| 27 µM | Cl.NCCc1ccc(OCCC2Oc3cc([N+](=O)[O-])ccc3N(Cc3cccc(Cl)c3)C2=O)cc1 (stereo not drawn) [Compound 82, 2-{2-[4-(2-Aminoethyl)phenoxy]ethyl}-4-(3-chlorobenzyl)-3,4-dihydro-7-nitro-3-oxo-2H-1,4-benzoxazine monohydrochloride] |

| SMILES | IC50 |
| --- | --- |
| CC(C)(C)OC(=O)N=C(NCCc1ccc(OCCC2Oc3ccccc3N(Cc3csc(Cl)c3)C2=O)cc1)NC(=O)OC(C)(C)C (stereo not drawn) [Compound 47, 2-{2-[4-[2-(N,N-Bis-tert-butoxycarbonylguanidino)ethyl]phenoxy]ethyl}-4-(2-chloro-4-thienylmethyl)-3,4-dihydro-3-oxo-2H-1,4-benzoxazine] | 398 µM |
| CC(C)(C)OC(=O)N=C(NCCc1ccc(OCCC2Oc3ccc(C(F)(F)F)cc3N(Cc3cccc(Cl)c3)C2=O)cc1)NC(=O)OC(C)(C)C (stereo not drawn) [Compound 53, 2-{2-[4-[2-(N,N'-Bis-tert-butoxycarbonylguanidino)ethyl]phenoxy]ethyl}-4-(3-chlorobenzyl)-3,4-dihydro-3-oxo-6-trifluoromethyl-2H-1,4-benzoxazine] | 84 µM |
| CN1C(=O)C(CCOc2ccc(CCNC(=NC(=O)OC(C)(C)C)NC(=O)OC(C)(C)C)cc2)Oc2ccccc21 (stereo not drawn) [Compound 59, 2-{2-[4-[2-(N,N'-Bis-tert-butoxycarbonylguanidino)ethyl]phenoxy]ethyl}-3,4-dihydro-4-methyl-3-oxo-2H-1,4-benzoxazine] | 473 µM |
| CC(C)(C)OC(=O)NCCc1cccc(OCCC2Oc3ccccc3N(Cc3cccc(Cl)c3)C2=O)c1 (stereo not drawn) [Compound 69, 2-{2-[3-(2-(t-Butoxycarbonylamino)ethyl)phenoxy]ethyl}-4-(3-chlorobenzyl)-3,4-dihydro-3-oxo-2H-1,4-benzoxazine] | 358 µM |
| CC(C)(C)OC(=O)N=C(NCCc1ccc(OCCC2Oc3ccccc3N(Cc3cccc(Cl)c3)C2=O)cc1)NC(=O)OC(C)(C)C (stereo not drawn) [Compound 71, 2-{2-[4-[2-(N,N-'Bis-tert-butoxycarbonylguanidino)ethyl]phenoxy]ethyl}-4-(3-chlorobenzyl)-3,4-dihydro-3-oxo-2H-1,4-benzoxazine] | 300 µM |
| CC(C)(C)OC(=O)NCc1cccc(OCCC2Oc3ccccc3N(Cc3cccc(Cl)c3)C2=O)c1 (stereo not drawn) [Compound 73, 2-{2-[3-(t-Butoxycarbonylaminomethyl)phenoxy]ethyl}-4-(3-chlorobenzyl)-3,4-dihydro-3-oxo-2H-1,4-benzoxazine] | 354 µM |
| CC(C)(C)OC(=O)N=C(NCc1ccc(OCCC2Oc3ccccc3N(Cc3cccc(Cl)c3)C2=O)cc1)NC(=O)OC(C)(C)C (stereo not drawn) [Compound 77, 2-{2-[4-[(N,N-'Bis-tert-butoxycarbonyl)guanidinomethyl]phenoxy]ethyl}-4-(3-chlorobenzyl)-3,4-dihydro-3-oxo-2H-1,4-benzoxazine] | 51 µM |
| CC(C)(C)OC(=O)N=C(NCCc1ccc(OCCC2Oc3cc([N+](=O)[O-])ccc3N(Cc3cccc(Cl)c3)C2=O)cc1)NC(=O)OC(C)(C)C (stereo not drawn) [Compound 80] | 162 µM |
